Laboratory results published in the supplement of paper PMC13380429.

Assays:
Settings in all cases: 72 h
Calu-3 [1] = experiment: relative viability EC50 (midpoint between 100% and the lowest measured viability); higher = less toxic
U2OS [2] = experiment: as above
Vero E6 [3] = experiment: cell viability relative to DMSO; higher = less toxic
Calu-3 [4] = experiment: as above
HepG2 [5] = experiment: as above
Caco-2 [6] = experiment: as above
U2OS [7] = experiment: as above
Vero E6 [8] = experiment: drug sensitivity score (DSS) for viability; higher = more toxic; extreme values may be limits of the assay
Calu-3 [9] = experiment: as above
HepG2 [10] = experiment: as above
Caco-2 [11] = experiment: as above
U2OS [12] = experiment: as above
HepG2 [13] = experiment: relative viability EC50 (midpoint between 100% and the lowest measured viability); higher = less toxic
Vero E6 [14] = experiment: as above
Caco-2 [15] = experiment: as above

| SMILES | relative viability EC50 (Calu-3 [1]) | relative viability EC50 (U2OS [2]) | cell viability (Vero E6 [3]; 1 nM) | cell viability (Vero E6 [3]; 10 nM) | cell viability (Vero E6 [3]; 100 nM) | cell viability (Vero E6 [3]; 1000 nM) | cell viability (Vero E6 [3]; 10000 nM) | cell viability (Calu-3 [4]; 1 nM) | cell viability (Calu-3 [4]; 10 nM) | cell viability (Calu-3 [4]; 100 nM) | cell viability (Calu-3 [4]; 1000 nM) | cell viability (Calu-3 [4]; 10000 nM) | cell viability (HepG2 [5]; 1 nM) | cell viability (HepG2 [5]; 10 nM) | cell viability (HepG2 [5]; 100 nM) | cell viability (HepG2 [5]; 1000 nM) | cell viability (HepG2 [5]; 10000 nM) | cell viability (Caco-2 [6]; 1 nM) | cell viability (Caco-2 [6]; 10 nM) | cell viability (Caco-2 [6]; 100 nM) | cell viability (Caco-2 [6]; 1000 nM) | cell viability (Caco-2 [6]; 10000 nM) | cell viability (U2OS [7]; 1 nM) | cell viability (U2OS [7]; 10 nM) | cell viability (U2OS [7]; 100 nM) | cell viability (U2OS [7]; 1000 nM) | cell viability (U2OS [7]; 10000 nM) | drug sensitivity score (Vero E6 [8]) | drug sensitivity score (Calu-3 [9]) | drug sensitivity score (HepG2 [10]) | drug sensitivity score (Caco-2 [11]) | drug sensitivity score (U2OS [12]) | relative viability EC50 (HepG2 [13]) | relative viability EC50 (Vero E6 [14]) | relative viability EC50 (Caco-2 [15]) |
| --- | --- | --- | --- | --- | --- | --- | --- | --- | --- | --- | --- | --- | --- | --- | --- | --- | --- | --- | --- | --- | --- | --- | --- | --- | --- | --- | --- | --- | --- | --- | --- | --- | --- | --- | --- |
| CCCCCCCC/C=C\CCCCCCCC(=O)NCCc1ccc(O)c(O)c1 [OLDA] | > 10 µM | 2.58 µM | 106% | 101% | 99% | 99.2% | 61.7% | 105% | 98.6% | 97.9% | 103% | 104% | 98.1% | 107% | 100% | 103% | 56.3% | 98.1% | 90.4% | 96.7% | 92% | 61.9% | 101% | 99.1% | 98.3% | 94.6% | 25.9% | 2 | 0 | 2 | 3.2 | 4.9 | – | – | – |
| CCc1nc(N)nc(N)c1-c1ccc(Cl)cc1 [pyrimethamine] | > 10 µM | > 10 µM | 96.3% | 93% | 103% | 99.9% | 60.7% | 101% | 111% | 101% | 99% | 107% | 108% | 91.5% | 102% | 93.2% | 77.9% | – | – | – | – | – | 100% | 108% | 99.8% | 102% | 96.8% | 2 | 0 | 1.6 | – | 0 | > 10 µM | – | – |
| CC(=C(CCOC(=O)C(C)C)SSC(CCOC(=O)C(C)C)=C(C)N(C=O)Cc1cnc(C)nc1N)N(C=O)Cc1cnc(C)nc1N (stereo in doubt) [sulbutiamine] | > 10 µM | > 10 µM | 100% | 84.3% | 98.7% | 89.2% | 95.1% | 109% | 111% | 112% | 105% | 89.1% | 101% | 84.5% | 112% | 95.3% | 97.4% | 90.8% | 105% | 70.2% | 98.5% | 81.8% | 101% | 106% | 105% | 101% | 92.8% | 0 | 0 | 0 | 1.2 | 0 | > 10 µM | > 10 µM | – |
| NCCS [cysteamine] | > 10 µM | > 10 µM | 106% | 101% | 99.8% | 94.8% | 99.9% | 87.7% | 100% | 98.3% | 99.1% | 102% | – | – | – | – | – | 102% | 108% | 104% | 100% | 93.8% | 102% | 102% | 95.1% | 99.7% | 97.4% | 0 | 0 | – | 0 | 0 | – | > 10 µM | > 10 µM |
| Clc1ccc(CSC(Cn2ccnc2)c2ccc(Cl)cc2Cl)cc1 (centres undefined) [sulconazole] | > 10 µM | > 10 µM | 106% | 104% | 104% | 95.4% | 94.6% | 107% | 95.5% | 102% | 110% | 96.7% | 86.9% | 87.4% | 102% | 99.1% | 98.1% | 99.5% | 92.7% | 97.3% | 94% | 63.5% | 97.5% | 101% | 96% | 101% | 93.7% | 0 | 0 | 0 | 2.7 | 0 | > 10 µM | > 10 µM | – |
| Nc1nc(=O)[nH]cc1F [flucytosine] | > 10 µM | > 10 µM | – | – | – | – | – | 87.6% | 102% | 99.9% | 91.1% | 111% | 101% | 110% | 97.6% | 109% | 110% | 97.6% | 94% | 100% | 96.5% | 92.9% | 98.6% | 99.2% | 102% | 97.9% | 104% | – | 0 | 0 | 0 | 0 | > 10 µM | – | > 10 µM |
| O=C(Cc1cccc(OC(F)(F)F)c1)Nc1ccc(CCCCc2nnc(NC(=O)Cc3ccccn3)s2)nn1 [CB-839] | > 10 µM | > 10 µM | 95.7% | 93.9% | 89.5% | 65.2% | 65.3% | 107% | 102% | 89.5% | 89.1% | 86.6% | 96.7% | 89.2% | 78.1% | 66.1% | 71.4% | 94.9% | 98.7% | 101% | 105% | 106% | 99.6% | 105% | 92.6% | 75.9% | 82% | 7.1 | 1.5 | 8.4 | 0 | 4.7 | – | – | > 10 µM |
| Cn1cc(-c2cnc3ccc4ccc(CS(=O)(=O)NCc5ccccn5)cc4c(=O)c3c2)cn1 [MK-8033] | > 10 µM | > 10 µM | 104% | 98.8% | 104% | 99.4% | 97.7% | 99.8% | 87.8% | 105% | 94.5% | 99.9% | 113% | 93.3% | 110% | 95.3% | 53.8% | 96.4% | 95.6% | 91.8% | 97.9% | 75.1% | 97.6% | 98.7% | 98.7% | 101% | 91.7% | 0 | 0 | 3.2 | 1.2 | 0 | – | > 10 µM | > 10 µM |
| Oc1c(I)cc(I)c2cccnc12 [iodoquinol] | > 10 µM | > 10 µM | 100% | 106% | 100% | 99.8% | 68.1% | 106% | 98.6% | 99.7% | 93.4% | 98.4% | 109% | 99% | 93.7% | 99.9% | 36.1% | 107% | 94.3% | 97.1% | 96.3% | 63.1% | 104% | 100% | 102% | 98.5% | 85.2% | 1.5 | 0 | 3.5 | 2.4 | 0.4 | 3.15 µM | – | – |
| CCCCCCCCCCCCOCCOCCOCCOCCOCCOCCOCCOCCOCCO [polidocanol] | > 10 µM | > 10 µM | 99.5% | 89.7% | 104% | 108% | 116% | 106% | 105% | 99.6% | 106% | 91.5% | 105% | 98.5% | 124% | 111% | 28.9% | 85.7% | 105% | 99.9% | 108% | 69.7% | 91.5% | 103% | 95.4% | 101% | 90.4% | 0 | 0 | 3.3 | 1 | 0 | 3.8 µM | > 10 µM | – |
| CC#C[C@]1(O)CC[C@H]2[C@@H]3CCC4=CC(=O)CCC4=C3[C@@H](c3ccc(N(C)C)cc3)C[C@@]21C [mifepristone] | > 10 µM | > 10 µM | 98% | 101% | 98.4% | 96.8% | 97.6% | 96.2% | 103% | 88.7% | 96.3% | 109% | 93.6% | 92.6% | 102% | 90.3% | 99% | 88.8% | 93.4% | 94.1% | 100% | 72% | 100% | 100% | 100% | 104% | 91.8% | 0 | 0 | 0 | 1.2 | 0 | > 10 µM | > 10 µM | – |
| Cc1ncc(CSSCc2cnc(C)c(O)c2CO)c(CO)c1O [pyritinol] | > 10 µM | > 10 µM | – | – | – | – | – | 96.1% | 105% | 94.4% | 99.2% | 105% | 90% | 97.7% | 108% | 95.8% | 97.8% | 99.8% | 87.4% | 94.5% | 100% | 92.7% | 103% | 100% | 96.6% | 101% | 98.3% | – | 0 | 0 | 0 | 0 | > 10 µM | – | > 10 µM |
| CC1(C)CCC[C@]2(C)[C@H]3CC(=O)O[C@]3(C)CC[C@@H]12 [Sclareolide (Norambreinolide)] | > 10 µM | > 10 µM | – | – | – | – | – | 100% | 104% | 99.4% | 107% | 87.6% | 106% | 99.1% | 108% | 101% | 100% | 95.7% | 96.6% | 92.7% | 102% | 88.5% | 100% | 100% | 97% | 99.5% | 99.5% | – | 0 | 0 | 0 | 0 | > 10 µM | – | > 10 µM |
| COc1oc(=O)c2cc(N)ccc2c1Cl [JLK-6] | > 10 µM | > 10 µM | 108% | 104% | 100% | 104% | 93.8% | 103% | 105% | 106% | 94.9% | 80.9% | 96.6% | 113% | 103% | 105% | 73.1% | 99.2% | 94.6% | 96.1% | 95.4% | 76.6% | 99.7% | 98.2% | 99.1% | 99.4% | 91.7% | 0 | 1.1 | 0.8 | 1.5 | 0 | – | > 10 µM | > 10 µM |
| Nc1ncnc2c1ncn2[C@H]1CC[C@@H](CO)O1 [dideoxyadenosine] | > 10 µM | > 10 µM | 101% | 98% | 99.3% | 106% | 102% | 98.8% | 95.4% | 89.1% | 107% | 108% | – | – | – | – | – | 98.6% | 95.3% | 94.6% | 94.6% | 104% | 96.3% | 100% | 93.7% | 99.3% | 102% | 0 | 0 | – | 0 | 0 | – | > 10 µM | > 10 µM |
